The results in this text go back to ChEMBL document CHEMBL5143516, “Design, synthesis, and biological evaluation of N-(3-cyano-1H-indol-5/6-yl)-6-oxo-1,6-dihydropyrimidine-4-carboxamides and 5-(6-oxo-1,6-dihydropyrimidin-2-yl)-1H-indole-3-carbonitriles as novel xanthine oxidase inhibitors” (Eur J Med Chem, 2022).

pIC50: −log10 of the molar value. Activity calls are given as the source filed them. The rule behind the calls is not given here.

Test [1] addresses Xanthine dehydrogenase/oxidase (Homo sapiens, UniProt P47989). Description: Inhibition of xanthine oxidase (unknown origin) using xanthine as substrate incubated for 15 mins followed by substrate addition by spectrophotometric analysis.
The next test concerns Rattus norvegicus. Briefly: Anti-hyperuricemic activity against potassium oxonate-induced acute hyperuricemia Sprague-Dawley rat model assessed as reduction in serum uric acid level at 10 mg/kg, po pretreated with potassium oxonate for 1 hr followed by compound treatment and measured after 8 hrs. Format: functional, organism-based.

Sequence of Xanthine dehydrogenase/oxidase (P47989 whole entry): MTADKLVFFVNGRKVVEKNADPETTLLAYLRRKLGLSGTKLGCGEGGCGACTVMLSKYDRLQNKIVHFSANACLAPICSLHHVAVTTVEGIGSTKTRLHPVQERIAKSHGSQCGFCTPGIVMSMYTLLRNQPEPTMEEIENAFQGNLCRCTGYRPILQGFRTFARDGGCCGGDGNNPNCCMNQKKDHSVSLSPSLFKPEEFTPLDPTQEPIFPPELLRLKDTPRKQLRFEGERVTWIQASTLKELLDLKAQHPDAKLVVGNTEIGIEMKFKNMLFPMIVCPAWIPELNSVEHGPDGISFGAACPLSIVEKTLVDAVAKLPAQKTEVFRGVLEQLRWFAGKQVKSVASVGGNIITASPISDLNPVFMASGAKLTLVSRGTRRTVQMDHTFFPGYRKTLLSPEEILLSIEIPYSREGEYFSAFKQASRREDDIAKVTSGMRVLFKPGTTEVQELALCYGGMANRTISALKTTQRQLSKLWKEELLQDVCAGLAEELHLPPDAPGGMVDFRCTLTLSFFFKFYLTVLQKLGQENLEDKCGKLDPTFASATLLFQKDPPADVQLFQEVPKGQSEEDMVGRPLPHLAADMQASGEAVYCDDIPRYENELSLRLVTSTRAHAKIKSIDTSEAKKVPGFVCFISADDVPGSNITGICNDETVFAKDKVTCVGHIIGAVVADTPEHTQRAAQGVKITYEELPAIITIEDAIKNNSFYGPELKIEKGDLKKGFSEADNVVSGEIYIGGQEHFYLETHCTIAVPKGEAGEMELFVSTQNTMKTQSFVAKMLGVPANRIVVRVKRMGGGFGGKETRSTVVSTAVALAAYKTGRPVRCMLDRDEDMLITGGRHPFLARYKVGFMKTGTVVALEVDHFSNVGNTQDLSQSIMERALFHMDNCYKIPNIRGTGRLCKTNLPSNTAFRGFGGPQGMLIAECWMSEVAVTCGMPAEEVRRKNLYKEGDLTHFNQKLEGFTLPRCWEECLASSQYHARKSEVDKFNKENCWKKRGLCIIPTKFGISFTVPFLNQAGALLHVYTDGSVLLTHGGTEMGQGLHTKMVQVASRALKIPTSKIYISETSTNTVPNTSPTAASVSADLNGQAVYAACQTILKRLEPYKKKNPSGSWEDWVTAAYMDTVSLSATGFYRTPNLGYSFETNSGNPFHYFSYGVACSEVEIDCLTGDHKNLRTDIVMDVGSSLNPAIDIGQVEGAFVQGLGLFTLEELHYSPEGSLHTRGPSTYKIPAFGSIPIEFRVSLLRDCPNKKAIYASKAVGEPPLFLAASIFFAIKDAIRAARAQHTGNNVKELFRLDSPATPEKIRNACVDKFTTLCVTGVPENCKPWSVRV

With `CC(C)n1cc(C#N)c2ccc(NC(=O)c3cc(=O)[nH]cn3)cc21`, the pIC50 in test [1] was under 5.00.

Compound `N#Cc1cn(CC2CC2)c2cc(NC(=O)c3cc(=O)[nH]cn3)ccc12` showed a pIC50 in test [1] of under 5.00.

In test [1], `CC(C)Cn1cc(C#N)c2ccc(NC(=O)c3cc(=O)[nH]cn3)cc21` showed a pIC50 of under 5.00. In test [1], `COc1ccnc(-c2ccc3c(c2)c(C#N)cn3C(C)C)n1` gave a negative logarithm of the IC50 (pIC50) of under 5.00. On the same count and under the same terms, the figure for `C=CCn1cc(C#N)c2ccc(NC(=O)c3cc(=O)[nH]cn3)cc21` is under 5.00. Consider `N#Cc1cn(C2CCCC2)c2cc(NC(=O)c3cc(=O)[nH]cn3)ccc12`, for which the negative-log IC50 (pIC50) in test [1] is under 5.00. For the compound `CC(C)n1cc(C#N)c2cc(-c3nccc(O)n3)ccc21`, in the test on Rattus norvegicus, the result was Active. On the same count and under the same terms, the entry for `N#Cc1cn(C2CCCC2)c2ccc(NC(=O)c3cc(=O)[nH]cn3)cc12` is “Active”.

On to `Cc1nc(C(=O)Nc2ccc3c(C#N)cn(C4CCCC4)c3c2)cc(=O)[nH]1`, for which the negative logarithm of the IC50 (pIC50) in test [1] was under 5.00. Take `Cc1nc(-c2ccc(OCC(C)C)c(C#N)c2)sc1C(=O)O` [FEBUXOSTAT]: the pIC50 in test [1] is 7.64. In addition, the result in the test on Rattus norvegicus was Active. As for `Oc1ncnc2[nH]ncc12`, the result in the test with Rattus norvegicus was Active. In test [1], `CC(C)=CCn1cc(C#N)c2ccc(NC(=O)c3cc(=O)[nH]cn3)cc21` gave a pIC50 of under 5.00. In test [1], `CC(C)(C)c1ccc(Cn2cc(C#N)c3cc(NC(=O)c4cc(=O)[nH]cn4)ccc32)cc1` had a pIC50 of under 5.00.
